Assays:
[1] = system: STHdh 111/111 striatal cells; assay: Cell viability (CellTiter Glo) of heat shocked STHdh 111/111 striatal cells; type: cell-based, mouse; conditions: Mus musculus, STHdh 111/111; 10 µM; 48 hours treatment; read-out: Cell Viability striatal cells 3h heat shocked
Protocol: Cell culture - ST HDH Q111/111 (CH00095, Coriell Institute) striatal derived cell line were grown at 33° C. in DMEM (Sigma-Aldrich), supplemented with 10% fetal bovine serum (FBS), 1% Penicillin-Streptomycin (ThermoFisher Scientific), and 0.4 mg/ml G418 (Geneticin; Invitrogen). ST HDH Q111/111 are mouse striatal cells with polyQ length of 1111.
(§1) Pre-Treatment of striatal cell line - First the medium was removed and new DMEM (DMEM, high glucose, HEPES, no phenol red) medium, supplemented with 10% fetal bovine serum (FBS), 1% Penicillin-Streptomycin, containing 10 µM compound was added. The cells were incubated at 33° C. for 24 hours.
(§2) Heat shock - Cells were heat shocked for 3 hours at 41° C.
(§3) Treatment - Medium was removed and new DMEM (DMEM, high glucose, HEPES, no phenol red) medium, supplemented with 1% fetal bovine serum (FBS), 1% Penicillin-Streptomycin, containing 10 µM compound was added. The cells were incubated at 33° C. for 48 hours.
Cell Viability - Cell viability was measured according to manufacturer recommendations with CellTiter Glo (Promega). 96-well plates for used either for cell viability determination or cell staining.

mHTT = mHTT (Mus musculus, UniProt P42859, DEL28-30/G47A/INS49LLPQPQPP/INS60VA/L56P/P40L); assay: Diffuse mHTT levels in heat shocked STHdh 111/111 striatal cells by immunocytochemistry; conditions: 48 h, read-out: mHTT after treatment
Sequence of mHTT (P42859 with tags, fused parts or gaps DEL28-30/P40L/G47A/INS49LLPQPQPP/L56P/INS60VA): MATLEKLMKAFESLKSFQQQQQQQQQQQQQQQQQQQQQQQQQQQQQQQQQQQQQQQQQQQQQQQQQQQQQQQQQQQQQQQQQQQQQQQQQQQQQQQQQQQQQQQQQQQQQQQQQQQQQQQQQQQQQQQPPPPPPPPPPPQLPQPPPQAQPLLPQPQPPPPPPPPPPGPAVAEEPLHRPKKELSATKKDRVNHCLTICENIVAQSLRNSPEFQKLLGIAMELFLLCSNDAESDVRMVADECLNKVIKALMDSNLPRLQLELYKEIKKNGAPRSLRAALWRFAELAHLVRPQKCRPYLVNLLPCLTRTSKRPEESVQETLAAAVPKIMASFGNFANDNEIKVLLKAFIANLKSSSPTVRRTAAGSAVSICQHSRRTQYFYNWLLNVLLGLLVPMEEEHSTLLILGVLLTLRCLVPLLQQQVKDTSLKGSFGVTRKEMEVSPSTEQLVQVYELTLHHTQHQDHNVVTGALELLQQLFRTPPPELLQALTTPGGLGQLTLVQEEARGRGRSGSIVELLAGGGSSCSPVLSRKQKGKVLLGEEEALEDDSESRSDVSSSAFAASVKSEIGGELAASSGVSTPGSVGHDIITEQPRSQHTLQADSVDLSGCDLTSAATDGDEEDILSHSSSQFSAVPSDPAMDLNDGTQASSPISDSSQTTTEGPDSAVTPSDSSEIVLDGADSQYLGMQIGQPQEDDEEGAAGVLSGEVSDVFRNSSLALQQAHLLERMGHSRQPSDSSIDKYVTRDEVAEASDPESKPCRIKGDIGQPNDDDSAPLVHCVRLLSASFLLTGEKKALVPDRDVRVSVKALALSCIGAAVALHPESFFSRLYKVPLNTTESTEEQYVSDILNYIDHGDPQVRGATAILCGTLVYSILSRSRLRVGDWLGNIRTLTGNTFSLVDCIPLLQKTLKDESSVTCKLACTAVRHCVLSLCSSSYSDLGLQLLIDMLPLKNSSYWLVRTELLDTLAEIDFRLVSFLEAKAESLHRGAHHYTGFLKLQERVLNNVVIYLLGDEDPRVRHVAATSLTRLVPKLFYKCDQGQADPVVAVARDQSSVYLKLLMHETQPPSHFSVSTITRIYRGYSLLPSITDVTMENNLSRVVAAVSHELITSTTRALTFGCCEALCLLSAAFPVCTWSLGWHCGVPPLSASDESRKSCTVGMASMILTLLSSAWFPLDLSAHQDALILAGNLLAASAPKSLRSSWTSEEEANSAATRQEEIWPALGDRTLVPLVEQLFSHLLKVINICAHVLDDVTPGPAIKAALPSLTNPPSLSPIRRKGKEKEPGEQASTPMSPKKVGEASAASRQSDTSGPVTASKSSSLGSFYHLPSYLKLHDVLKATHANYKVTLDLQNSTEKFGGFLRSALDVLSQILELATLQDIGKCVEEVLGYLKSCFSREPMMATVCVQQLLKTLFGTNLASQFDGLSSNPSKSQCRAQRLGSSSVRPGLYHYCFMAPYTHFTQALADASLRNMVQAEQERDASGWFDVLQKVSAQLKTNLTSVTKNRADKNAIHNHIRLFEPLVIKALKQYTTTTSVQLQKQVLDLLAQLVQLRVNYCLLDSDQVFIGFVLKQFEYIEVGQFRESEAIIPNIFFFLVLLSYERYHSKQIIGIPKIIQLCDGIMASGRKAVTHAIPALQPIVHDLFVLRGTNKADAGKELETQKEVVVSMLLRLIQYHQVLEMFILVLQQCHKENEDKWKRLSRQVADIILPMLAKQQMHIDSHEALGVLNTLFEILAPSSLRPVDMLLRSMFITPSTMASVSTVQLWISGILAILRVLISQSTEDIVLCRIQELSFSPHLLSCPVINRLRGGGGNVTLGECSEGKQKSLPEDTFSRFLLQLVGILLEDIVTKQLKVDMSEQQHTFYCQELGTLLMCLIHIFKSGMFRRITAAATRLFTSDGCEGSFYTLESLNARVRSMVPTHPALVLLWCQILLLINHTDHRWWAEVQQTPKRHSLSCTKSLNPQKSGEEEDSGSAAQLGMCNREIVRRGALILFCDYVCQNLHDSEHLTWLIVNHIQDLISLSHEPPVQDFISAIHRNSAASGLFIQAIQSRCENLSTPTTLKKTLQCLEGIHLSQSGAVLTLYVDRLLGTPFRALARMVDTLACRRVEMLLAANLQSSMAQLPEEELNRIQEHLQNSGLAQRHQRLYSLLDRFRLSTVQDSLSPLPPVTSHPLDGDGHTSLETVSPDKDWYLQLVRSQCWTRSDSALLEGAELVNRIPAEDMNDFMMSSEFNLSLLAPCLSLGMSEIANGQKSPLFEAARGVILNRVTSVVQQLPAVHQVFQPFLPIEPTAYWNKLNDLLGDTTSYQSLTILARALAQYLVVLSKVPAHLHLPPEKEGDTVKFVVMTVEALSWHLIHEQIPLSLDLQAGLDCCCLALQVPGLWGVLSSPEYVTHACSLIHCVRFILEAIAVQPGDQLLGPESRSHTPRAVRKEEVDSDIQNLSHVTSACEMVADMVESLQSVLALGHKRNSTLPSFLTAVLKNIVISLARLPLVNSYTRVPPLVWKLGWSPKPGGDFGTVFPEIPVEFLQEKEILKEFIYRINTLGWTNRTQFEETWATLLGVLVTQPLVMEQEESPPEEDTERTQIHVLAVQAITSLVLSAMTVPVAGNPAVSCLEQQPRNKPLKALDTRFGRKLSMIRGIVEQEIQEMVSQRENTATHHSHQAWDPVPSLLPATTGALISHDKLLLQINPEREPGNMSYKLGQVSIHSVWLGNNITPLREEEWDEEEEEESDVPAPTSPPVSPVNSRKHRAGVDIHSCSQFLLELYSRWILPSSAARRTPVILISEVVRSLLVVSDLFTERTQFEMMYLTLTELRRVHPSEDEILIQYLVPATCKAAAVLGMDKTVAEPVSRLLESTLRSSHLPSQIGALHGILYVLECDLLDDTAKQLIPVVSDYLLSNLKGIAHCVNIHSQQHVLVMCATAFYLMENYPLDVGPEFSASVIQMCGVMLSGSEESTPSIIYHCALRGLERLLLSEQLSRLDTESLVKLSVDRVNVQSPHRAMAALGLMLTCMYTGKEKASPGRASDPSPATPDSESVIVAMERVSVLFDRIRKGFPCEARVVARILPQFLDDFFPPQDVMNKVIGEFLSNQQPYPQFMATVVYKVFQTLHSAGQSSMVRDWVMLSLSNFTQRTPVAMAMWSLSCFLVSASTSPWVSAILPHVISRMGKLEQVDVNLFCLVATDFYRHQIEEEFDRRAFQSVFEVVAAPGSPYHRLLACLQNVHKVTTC
Protocol: as §1, §2, §3
Staining - Cells were permeabilized with 0.3% Triton X-100 in 4° C. PBS (pH 7.4 from ThermoFisher) for 10 minutes. Then the cells were washed two times with 4° C. PBS. Subsequently, cells are blocked with 3% NGS (normal goat serum from Thermo Fisher) in 4° C. PBS for 1 hour. Cells were incubated with primary antibodies in blocking buffer (PBS, 3% NGS, 0.02% NaN3) over night at 4° C. Primary antibodies were mouse antipolyglutamine monoclonal antibody 3B5H10 (Sigma-Aldrich) at 1:250 dilution and Guinea Pig anti-MAP2 polyclonal antibody (Synaptic Systems) at 1:500 dilution. 3B5H10 binds to diffuse mHTT. Diffuse mHTT is a monomeric and small oligomeric mHTT.
Cells were washed 2 times with 4° C. PBS, and then incubated with secondary antibodies at 1:2000 dilution in blocking buffer for 1 hour at room temperature. […] Cells were washed 2 times with 4° C. PBS, and then the nuclei were counterstain with DAPI (ThermoFisher) for 10 min at room temperature in the dark. Cells were washed 2 times with 4° C. PBS, and then 4° C. PBS was added to cells and then images were acquired.
Fluorescence Imaging - Imaging sessions were performed on a confocal microscope system (Carl Zeiss Microscopy) equipped with a dual spinning disk unit (Yokogawa). All components of the imaging system were controlled via the ZEN 2 software suite (Carl Zeiss Microscopy). The laser lines used were 405 nm, 488 nm and 639 nm to excite DAPI or the respective fluorophores. […] Nested t test was performed to calculate the significance amongst repeated measurements using GraphPad Prism software.
ST HDH Q7/7 (CH00097, Coriell Institute) striatal derived cell line from a knock in transgenic mouse containing HTT loci with a humanized Exon 1 containing 7 polyglutamine repeats.
EC 50 value was determined with non-linear regression.

| Compound | viability at 10 µM [1] [%] | remaining activity at 10 µM (mHTT) [%] |
| --- | --- | --- |
| CCc1c(C)[nH]c2ccc(C(=O)NCCN(C)C)cc12 [Compound 1] | 111 | 30 |
| CN(C)CCNC(=O)c1ccc2[nH]c3c(c2c1)CCCC3 [Compound 3] | 86 |  |
| CN(C)CCNC(=O)c1ccc2[nH]c3c(c2c1)CCC3 [Compound 5] | 104 |  |
| CCc1[nH]c2ccc(C(=O)NCCN3CCC3)cc2c1C [Compound 6] | 113 | 37 |
| O=C(NCCN1CCOCC1)c1ccc2[nH]c3c(c2c1)CCC3 [Compound 8] | 115 |  |
| CN1CCN(CCNC(=O)c2ccc3[nH]c4c(c3c2)CCC4)CC1 [Compound 10] | 96 | 40 |
| CCc1[nH]c2ccc(C(=O)NCCN3CCCC3)cc2c1C [Compound 11] | 114 | 40 |
| O=C(NCCN1CCOCC1)c1ccc2[nH]c3c(c2c1)CCCC3 [Compound 12] | 106 | 40 |
| O=C(NCCN1CCCC1)c1ccc2[nH]c3c(c2c1)CCCC3 [Compound 13] | 117 |  |
| O=C(NCCN1CCCC1)c1ccc2[nH]c3c(c2c1)CCC3 [Compound 14] | 113 | 41 |
| CCc1c(C)[nH]c2ccc(C(=O)NCCN3CCN(C)CC3)cc12 [Compound 15] | 104 |  |
| O=C(NCCN1CCCCC1)c1ccc2[nH]c3c(c2c1)CCCC3 [Compound 16] | 117 |  |
| Cc1[nH]c2ccc(C(=O)NCCN3CCC3)cc2c1C [Compound 17, N-(2-(Azetidin-1-yl)ethyl)-2,3-dimethyl-1H-indole-5-carboxamide] | 99 |  |
| CCc1c(C)[nH]c2ccc(C(=O)NCCN3CCCCC3)cc12 [Compound 18] | 103 | 44 |
| CCc1[nH]c2ccc(C(=O)NCCN3CCCCC3)cc2c1C [Compound 23] | 84 |  |
| Cc1c(C)n(C)c2ccc(C(=O)NCCN3CCN(C)C(C)C3)cc12 (stereo not drawn) [Compound 25, N-(2-(3,4-Dimethylpiperazin-1-yl)ethyl)-1,2,3-trimethyl-1H-indole-5-carboxamide] | 109 |  |
| CCc1[nH]c2ccc(C(=O)NCCN3CCOCC3)cc2c1C [Compound 30] | 55 |  |
| Cc1c(C)n(C)c2ccc(C(=O)NCCN3CCCCC3)cc12 [Compound 31, 1,2,3-Trimethyl-N-(2-(piperidin-1-yl)ethyl)-1H-indole-5-carboxamide] | 116 |  |
| CCc1c(C)[nH]c2ccc(C(=O)NCCN3CCOCC3)cc12 [Compound 32] | 98 |  |
| CCc1c(C)[nH]c2ccc(C(=O)NCCN3CCC3)cc12 [Compound 33] | 79 |  |
| CN1CCN(CCNC(=O)c2ccc3[nH]c4c(c3c2)CCCC4)CC1 [Compound 36] | 84 |  |
| CCc1[nH]c2ccc(C(=O)NCCN(C)C)cc2c1C [Compound 37] | 78 |  |
| CCc1[nH]c2ccc(C(=O)NCCN(CC)CC)cc2c1C [Compound 38] | 81 |  |
| Cc1c(C)n(C)c2ccc(C(=O)NCCN(C)C)cc12 [Compound 41, N-(2-(Dimethylamino)ethyl)-1,2,3-trimethyl-1H-indole-5-carboxamide] | 75 |  |
| O=C(NCCN1CCC1)c1ccc2[nH]c3c(c2c1)CCC3 [Compound 42] | 88 |  |
| CC(C)N(CCNC(=O)c1ccc2[nH]ccc2c1)C(C)C [Compound 43] | 32 |  |
| Cc1c(C)n(C)c2ccc(C(=O)NCCN3CCCC3)cc12 [Compound 46, 1,2,3-Trimethyl-N-(2-(pyrrolidin-1-yl)ethyl)-1Hindole-5-carboxamide] | 96 |  |
| Cc1[nH]c2ccc(C(=O)NCCN3CCCCC3)cc2c1C [Compound 47, 2,3-Dimethyl-N-(2-(piperidin-1-yl)ethyl)-1H-indole-5-carboxamide] | 66 |  |
| Cc1c(C)n(C)c2ccc(C(=O)NCCN3CCCCC3C)cc12 (stereo not drawn) [Compound 48] | 108 |  |
